According to US7705038B2, “Control of parasites in animals by the use of parasiticidal 2-phenyl-3-(1H-pyrrol-2-yl)acrylonitrile derivatives” (Intervet, Inc., priority 2004, dated 2010):

Columns and labels:
Haemonchus contortus = test: Activity against Haemonchus contortus (LD99); settings: dose required to kill 99% of the sample of Haemonchus contortus
Source text: (§1) Exemplified compounds of Formula 1 are listed by Tables 1a and 1b, above. The activity of these compounds against Haemonchus contortus and cat fleas (Ctenocephalides felis) is summarized by Table 7, below.
The LD99 value is the dose, expressed as μg/ml, that was required to kill 99% of the sample of Haemonchus contortus.

[1] = test system: cat fleas (Ctenocephalides felis); test: Contact activity against cat fleas (LC50, % kill); settings: for % Kill: percent of a sample of cat fleas killed at a concentration of 1.26 μg/cm^2; for LC50: concentration required to kill 50% of the sample of cat fleas on contact; for pest or weed control at 1.26 µg/cm2, 1.26 µg/cm2: Ctenocephalides felis, read-out: % Kill
Source text: as §1

Row | Compound | LD99 (Haemonchus contortus) | % Kill [1] [%] | EC99 (Haemonchus contortus) [µg/mL] | LC50 [1] [μg/cm^2] | pest or weed control at 1.26 µg/cm2, 1.26 µg/cm2 [1] [%]
1 | N#C/C(=C\c1ccc[nH]1)c1ccc(Cl)cc1F [Compound 48] | 2.5 µg/mL | 5 | – | – | –
2 | N#C/C(=C\c1cccn1Cc1ccccc1)c1ccc(Cl)cc1 [Compound 77] | 14 µg/mL | 3 | – | – | –
3 | N#C/C(=C\c1ccc[nH]1)c1ccc(I)cc1 [Compound 36] | 0.688 µg/mL | 14 | – | – | –
4 | N#C/C(=C\c1ccc[nH]1)c1cccc(Br)c1 [Compound 39] | 0.938 µg/mL | 24 | – | – | –
5 | N#C/C(=C\c1ccc[nH]1)c1cccc(Oc2ccccc2)c1 [Compound 71] | 3.25 µg/mL | 10 | – | – | –
6 | CCOCn1cccc1/C=C(\C#N)c1cccc2ccccc12 [Compound 65, 2-(1-naphthyl)-3-(1-ethoxymethyl-1H-pyrrol-2-yl)acrylonitrile] | – | – | > 15 | – | –
7 | N#C/C(=C\c1cc(Cl)c(Cl)[nH]1)c1ccc(Cl)cc1 [Compound 3] | 3 µg/mL | 15 | – | – | –
8 | N#C/C(=C\c1ccc[nH]1)c1cc(C(F)(F)F)cc(C(F)(F)F)c1 [Compound 68] | — (the symbol ‘—’ indicates tested but inactive up to 15 μg/ml) | 27 | – | – | –
9 | Cc1cccc(/C(C#N)=C/c2ccc[nH]2)c1 [Compound 72] | 1.25 µg/mL | 42 | – | – | –
10 | N#C/C(=C\c1ccc[nH]1)c1ccc(Cl)c(Cl)c1 [Compound 27] | 0.406 µg/mL | 78 | – | – | –
11 | CC(C)c1ccc(/C(C#N)=C/c2ccc[nH]2)cc1 [Compound 87] | — (the symbol ‘—’ indicates tested but inactive up to 15 μg/ml) | 100 | – | – | –
12 | N#C/C(=C\c1ccc[nH]1)c1cccc(C(F)(F)F)c1 [Compound 9] | 0.938 µg/mL | 56 | – | 9.94 | –
13 | N#C/C(=C\c1ccc[nH]1)c1ccc(F)cc1F [Compound 69] | 2.5 µg/mL | 5 | – | – | –
14 | N#C/C(=C\c1ccc[nH]1)c1ccc(-c2ccccc2)cc1 [Compound 18] | 7.5 µg/mL | 46 | – | – | –
15 | N#C/C(=C\c1ccc[nH]1)c1ccc(C#N)cc1 [Compound 20] | 10 µg/mL | 44 | – | – | –
16 | CCOCn1cccc1/C=C(\C#N)c1ccc(C(F)(F)F)cc1 [Compound 8] | 5 µg/mL | 6 | – | – | –
17 | N#C/C(=C\c1cc(Br)c[nH]1)c1ccc(Cl)c(Cl)c1 [Compound 29] | 5 µg/mL | 15 | – | – | –
18 | N#C/C(=C\c1ccc[nH]1)c1ccccc1 [Compound 35] | — (the symbol ‘—’ indicates tested but inactive up to 15 μg/ml) | 21 | – | – | –
19 | CCOCn1cccc1/C=C(\C#N)c1c(F)cccc1F [Compound 61] | — (the symbol ‘—’ indicates tested but inactive up to 15 μg/ml) | – | – | – | –
20 | CCc1ccc(/C(C#N)=C/c2ccc[nH]2)cc1 [Compound 75] | 0.875 µg/mL | 58 | – | – | –
21 | CCN(CC)C(=O)n1cccc1/C=C(\C#N)c1ccc(Cl)cc1 [Compound 78] | 3.5 µg/mL | 8 | – | – | –
22 | N#C/C(=C\c1ccc[nH]1)c1ccc2c(c1)OCO2 [Compound 19, 2-(3,4-methylenedioxy)phenyl-3-(1H-pyrrol-2-yl)acrylonitrile] | – | – | 6 | – | 26

Row | Compound | LD99 (Haemonchus contortus) | % Kill [1] [%] | EC99 (Haemonchus contortus) [µg/mL] | LC50 [1] [μg/cm^2] | pest or weed control at 1.26 µg/cm2, 1.26 µg/cm2 [1] [%]
23 | Cc1ccc(S(=O)(=O)n2cccc2/C=C(\C#N)c2ccc(Cl)cc2)cc1 [Compound 83] | 12 µg/mL | – | – | – | –
24 | CCOCn1cccc1/C=C(\C#N)c1ccc(Cl)cc1 [Compound 7, (Z)-2-(4-Chloro-phenyl)-3-(1-ethoxymethyl-1H-pyrrol-2-yl)acrylonitrile] | – | – | 5.5 | – | 6
25 | CCOCn1cccc1/C=C(\C#N)c1ccccc1F [Compound 55] | — (the symbol ‘—’ indicates tested but inactive up to 15 μg/ml) | 10 | – | – | –
26 | N#C/C(=C\c1ccc[nH]1)c1c(F)cccc1F [Compound 70] | 7.5 µg/mL | 17 | – | – | –
27 | N#C/C(=C\c1ccc[nH]1)c1ccccc1Br [Compound 38] | 3.25 µg/mL | 30 | – | – | –
28 | N#C/C(=C\c1ccc[nH]1)c1ccccc1 [Compound 17] | 0.469 µg/mL | 98 | – | 0.259 | –
29 | N#C/C(=C\c1ccc[nH]1)c1ccccc1C(F)(F)F [Compound 90] | – | 14 | – | – | –
30 | N#C/C(=C\c1ccc[nH]1)c1ccc(F)c(F)c1 [Compound 47] | 0.75 µg/mL | 17 | – | – | –
31 | CCOCn1cccc1/C=C(\C#N)c1ccc(C)cc1 [Compound 64] | — (the symbol ‘—’ indicates tested but inactive up to 15 μg/ml) | 20 | – | – | –
32 | N#C/C(=C\c1cccn1C(=O)c1ccccc1)c1ccc(Cl)cc1 [Compound 82] | 1.25 µg/mL | 6 | – | – | –
33 | N#C/C(=C\c1ccc[nH]1)c1c(F)cccc1Cl [Compound 67] | — (the symbol ‘—’ indicates tested but inactive up to 15 μg/ml) | 7 | – | – | –
34 | CCOCn1cccc1/C=C(\C#N)c1ccccc1C#N [Compound 50] | — (the symbol ‘—’ indicates tested but inactive up to 15 μg/ml) | – | – | – | –
35 | CC(C)(C)c1ccc(/C(C#N)=C/c2ccc[nH]2)cc1 [Compound 15] | 3.25 µg/mL | 87 | – | 0.478 | –
36 | Cc1ccccc1/C(C#N)=C/c1ccc[nH]1 [Compound 16, (Z)-2-(2-Methyl-phenyl)-3-(1H-pyrrol-2-yl)acrylonitrile] | – | – | 3.75 | 0.076 | 100
37 | CCOCn1cccc1/C=C(\C#N)c1cccc(C)c1 [Compound 63] | 13 µg/mL | – | – | – | –
38 | COC(=O)n1cccc1/C=C(\C#N)c1ccc(Cl)cc1 [Compound 85] | 1.25 µg/mL | 16 | – | – | –
39 | CCOCn1cccc1/C=C(\C#N)c1ccc(Cl)c(Cl)c1 [Compound 56] | 6.5 µg/mL | – | – | – | –
40 | CCOCn1cccc1/C=C(\C#N)c1ccc(F)cc1F [Compound 60] | — (the symbol ‘—’ indicates tested but inactive up to 15 μg/ml) | 19 | – | – | –
41 | N#C/C(=C\c1cc(Br)c[nH]1)c1ccc(Cl)cc1 [Compound 23] | 0.469 µg/mL | 23 | – | – | –
42 | CCOCn1cccc1/C=C(\C#N)c1ccc2ccccc2c1 [Compound 53, 2-(2-naphthyl)-3-(1-ethoxymethyl-1H-pyrrol-2-yl)acrylonitrile] | – | – | > 15 | – | –
43 | CCOCn1cccc1/C=C(\C#N)c1ccccc1Cl [Compound 54] | 7 µg/mL | – | – | – | –
44 | COc1ccccc1/C(C#N)=C/c1ccc[nH]1 [Compound 91] | – | 9 | – | – | –

Row | Compound | LD99 (Haemonchus contortus) | % Kill [1] [%] | EC99 (Haemonchus contortus) [µg/mL] | LC50 [1] [μg/cm^2] | pest or weed control at 1.26 µg/cm2, 1.26 µg/cm2 [1] [%]
45 | N#C/C(=C\c1ccc[nH]1)c1cccc(F)c1 [Compound 10] | 1.625 µg/mL | 78 | – | 0.78 | –
46 | CCOCn1cccc1/C=C(\C#N)c1cc(C(F)(F)F)cc(C(F)(F)F)c1 [Compound 59] | — (the symbol ‘—’ indicates tested but inactive up to 15 μg/ml) | – | – | – | –
47 | COc1ccc(/C(C#N)=C/c2ccc[nH]2)cc1 [Compound 14] | 1.5 µg/mL | 31 | – | – | –
48 | N#C/C(=C\c1ccc[nH]1)c1ccc(F)cc1 [Compound 28] | 2.5 µg/mL | 19 | – | 0.295 | –
49 | CCOCn1cccc1/C=C(\C#N)c1ccc(F)cc1 [Compound 49] | 14 µg/mL | – | – | – | –
50 | CC(C)(C)OC(=O)n1cccc1/C=C(\C#N)c1ccc(Cl)cc1 [Compound 79] | 3.75 µg/mL | 9 | – | – | –
51 | N#C/C(=C\c1ccc[nH]1)c1ccc(F)c(Br)c1 [Compound 73] | 0.469 µg/mL | 7 | – | – | –
52 | CCC(=O)n1cccc1/C=C(\C#N)c1ccc(Cl)cc1 [Compound 76, (Z)-2-(4-Chlorophenyl)-3-(1-propanoyl-1H-pyrrol-2-yl)acrylonitrile] | – | – | 0.375 | – | 12
53 | CCOCn1cccc1/C=C(\C#N)c1ccccc1C(F)(F)F [Compound 57] | — (the symbol ‘—’ indicates tested but inactive up to 15 μg/ml) | – | – | – | –
54 | N#C/C(=C\c1ccc[nH]1)c1ccccc1Cl [Compound 24] | 2.75 µg/mL | 19 | – | – | –
55 | N#C/C(=C\c1ccc[nH]1)c1ccccc1F [Compound 25] | 2.5 µg/mL | 92 | – | 0.594 | –
56 | N#C/C(=C\c1cc(Br)c[nH]1)c1cccc(C(F)(F)F)c1 [Compound 12] | 3.25 µg/mL | – | – | – | –
57 | CCOCn1cccc1/C=C(\C#N)c1c(Cl)cccc1Cl [Compound 52] | — (the symbol ‘—’ indicates tested but inactive up to 15 μg/ml) | – | – | – | –
58 | Cn1cccc1/C=C(\C#N)c1ccc(C(F)(F)F)cc1 [Compound 21] | — (the symbol ‘—’ indicates tested but inactive up to 15 μg/ml) | 24 | – | – | –
59 | Cc1ccc(/C(C#N)=C/c2ccc[nH]2)cc1 [Compound 26] | 0.938 µg/mL | 69 | – | – | –
60 | N#C/C(=C\c1ccc[nH]1)c1cccc2ccccc12 [Compound 32, 2-(1-naphthyl)-3-(1H-pyrrol-2-yl)acrylonitrile] | – | – | 0.234 | – | 42
61 | CCOCn1cccc1/C=C(\C#N)c1cccc(Br)c1 [Compound 58] | — (the symbol ‘—’ indicates tested but inactive up to 15 μg/ml) | – | – | – | –
62 | CCOCn1cccc1/C=C(\C#N)c1ccc(Br)cc1 [Compound 51] | 7.5 µg/mL | – | – | – | –
63 | CCOCn1cccc1/C=C(\C#N)c1ccc(F)c(F)c1 [Compound 62] | 6 µg/mL | – | – | – | –
64 | N#C/C(=C\c1ccc[nH]1)c1ccccc1-c1ccccc1 [Compound 89] | – | 2 | – | – | –
65 | CC(C)=CCn1cccc1/C=C(\C#N)c1ccc(Cl)cc1 [Compound 80, (Z)-2-(4-chlorophenyl)-3-(1-(3-methylbut-2-enyl)-1H-pyrrol-2-yl)acrylonitrile] | – | – | > 15 | – | –
